Source: patent US20040171073A1, “Compounds for modulation of cholesterol transport” (Massachusetts Institute of Technology, priority 2002, published 2004)

Target: T1, murine SR-BI (Mus musculus, UniProt Q61009)
T1 construct: expressed in transfected cells; host or cells: ldlA-7 (LDL receptor deficient Chinese hamster ovary cells)
T1 sequence (Q61009 1-509): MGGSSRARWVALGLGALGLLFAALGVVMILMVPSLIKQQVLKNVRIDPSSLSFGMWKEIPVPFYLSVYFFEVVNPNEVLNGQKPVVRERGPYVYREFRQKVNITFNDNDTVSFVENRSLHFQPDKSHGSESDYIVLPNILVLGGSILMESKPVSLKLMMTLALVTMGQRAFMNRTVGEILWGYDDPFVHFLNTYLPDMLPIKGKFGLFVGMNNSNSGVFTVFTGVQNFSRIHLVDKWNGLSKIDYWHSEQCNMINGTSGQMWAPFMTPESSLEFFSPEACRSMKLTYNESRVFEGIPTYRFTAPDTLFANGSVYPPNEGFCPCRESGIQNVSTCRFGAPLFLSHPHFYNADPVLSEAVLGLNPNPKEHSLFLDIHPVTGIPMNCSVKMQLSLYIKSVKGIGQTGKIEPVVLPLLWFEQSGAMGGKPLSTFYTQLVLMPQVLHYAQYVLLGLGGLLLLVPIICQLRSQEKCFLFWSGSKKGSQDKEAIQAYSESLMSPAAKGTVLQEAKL
Experiment: Uptake of DiI from DiI-HDL by ldlA[mSR-BI] cells (high throughput screen and concentration dependence)
Assay type: cell-based

[1] = DiI uptake from DiI-HDL, compounds at nominal 10 micromolar, ldlA[mSR-BI] cells

| SMILES | ENDOHDL Test 1 | ENDOHDL Test 2 | ENDOHDL Test 1 [1] | ENDOHDL Test 2 [1] |
| --- | --- | --- | --- | --- |
| O=C(O)CCNC(=O)c1ccccc1 [MIT 9952-94] | 1.21 | 1.22 | – | – |
| [O-][n+]1onc2c3cc(-c4ccccc4)[nH]c3ccc21 [MIT 9952-304] | – | – | 0.35 | 0.44 |
| Cc1cccc(C(=O)N/N=C/c2ccccc2Cl)c1 [MIT 9952-194] | 0.76 | 0.46 | – | – |
| O=C(CNS(=O)(=O)c1ccc([N+](=O)[O-])cc1)N/N=C/c1ccccc1 [MIT 9952-186] | 0.5 | 0.5 | – | – |
| C=CC[n+]1c(C)n(CC)c2cc(Cl)c(Cl)cc21.[I-] [MIT 9952-169] | 0.54 | 0.6 | – | – |
| Cc1cccc(C(=O)Nc2cccc(Cl)c2)c1 [MIT 9952-279] | – | – | 0.64 | 0.63 |
| O=C(NNC(=O)c1cccc2ccccc12)c1ccc(NC(=O)c2cccc3ccccc23)cc1 [MIT 9952-217] | 0.57 | 0.53 | – | – |
| CCn1c2ccccc2c2cc(/C=N/NC(N)=S)ccc21 [MIT 9952-211] | 0.59 | 0.56 | – | – |
| CCN(CC)CC(=O)Nc1ccc2c(c1)N(C(=O)c1ccccc1)c1ccccc1CC2.Cl [MIT 9952-178] | 0.4 | 0.38 | – | – |
| CSc1sc(SC)c(C[n+]2ccccc2)c1C[n+]1ccccc1.[I-].[I-] [MIT 9952-85] | 0.56 | 0.68 | – | – |
| CCCCCCC1CCC/C1=N\NC(N)=S (centres unmarked) [MIT 9952-185] | 0.53 | 0.46 | – | – |
| Br.Oc1c(Br)cccc1CN(Cc1cc(Br)cc(Br)c1O)C1CCCCC1 [MIT 9952-316] | – | – | 0.71 | 0.72 |
| Nc1ccc(C(=O)Nc2ccc(C3Nc4ccc(SC(=O)c5ccc(N)cc5)c(Cl)c4S3)cc2)cc1 (centres unmarked) [MIT 9952-144] | 0.56 | 0.56 | – | – |
| O=C(NC(NC(=S)Nc1ccc2ccccc2c1)C(Cl)(Cl)Cl)c1cccc([N+](=O)[O-])c1 (centres unmarked) [MIT 9952-336] | – | – | 0.54 | 0.58 |
| COc1cccc(C(=O)Nc2nc3ccc(Cl)cc3s2)c1 [MIT 9952-289] | – | – | 0.6 | 0.64 |
| NC(=S)Nc1ccc2c(c1)Nc1ccccc1CC2 [MIT 9952-175] | 0.42 | 0.51 | – | – |
| Cc1nn(-c2ccc([N+](=O)[O-])cc2)c(Cl)c1[N+](=O)[O-] [MIT 9952-103] | 0.56 | 0.61 | – | – |
| Nc1nc(-c2ccccc2)nc2sc3c(c12)CCCC3 [MIT 9952-15] | 0.55 | 0.61 | – | – |
| CC[n+]1c(/C=C/SC)ccc2ccccc21 [MIT 9952-260] | 0.56 | 0.58 | – | – |
| C=CC/C=C/c1c(NC(=O)c2ccccc2)sc2c1CCCC2 [MIT 9952-294] | – | – | 0.61 | 0.56 |
| C/C(=N\Nc1ccc([N+](=O)[O-])cc1)c1ccc([N+](=O)[O-])cc1 [MIT 9952-245] | 0.54 | 0.64 | – | – |

| SMILES | ENDOHDL Test 1 | ENDOHDL Test 2 | ENDOHDL Test 1 [1] | ENDOHDL Test 2 [1] |
| --- | --- | --- | --- | --- |
| CN(C)/C=N/C(=O)CN1CCCC1=O [MIT 9952-148] | 1.44 | 1.32 | – | – |
| CCN(CC)S(=O)(=O)c1cc(C(=O)Nc2ccc(Br)cc2)ccc1Br [MIT 9952-192] | 0.57 | 0.52 | – | – |
| COc1cccc(/C=N/Nc2ccc([N+](=O)[O-])cc2)c1 [MIT 9952-240] | 0.64 | 0.71 | – | – |
| Cc1cc(=O)oc2cc(OCc3ccccc3)c(OCc3ccccc3)cc12 [MIT 9952-218] | 0.64 | 0.33 | – | – |
| Cc1ccc2[nH]c3c(c2c1)CCCC3NCC12CC3CC(CC(C3)C1)C2 (centres unmarked) [MIT 9952-265] | 0.26 | 0.89 | – | – |
| O=C1Nc2ccc([N+](=O)[O-])cc2/C1=N/NC(=O)C1C2CCCCC21 (centres unmarked) [MIT 9952-184] | 0.6 | 0.58 | – | – |
| O=C(Nc1nc(-c2ccccc2)cs1)Nc1ccc(Cl)cc1Cl [MIT 9952-232] | 0.61 | 0.56 | – | – |
| CCS(=O)(=O)C(=C(Nc1ccc(OC)cc1)Nc1ccc(OC)cc1)S(=O)(=O)CC [MIT 9952-57] | 1.13 | 1.25 | – | – |
| Cc1ccc(C(C)C)cc1OCC(=O)N/N=C\c1cc([N+](=O)[O-])ccc1O [MIT 9952-154] | 0.47 | 0.45 | – | – |
| Cc1ccc(NC(=O)c2ccc([N+](=O)[O-])c(C)c2)cc1Cl [MIT 9952-224] | 0.6 | 0.5 | – | – |
| CCOC(=O)c1sc(-c2ccccc2)nc1-c1ccc([N+](=O)[O-])cc1 [MIT 9952-165] | 0.57 | 0.6 | – | – |
| COc1ccc2c(c1)c(C(C)=O)c(C)n2-c1ccccc1 [MIT 9952-212] | 0.57 | 0.49 | – | – |
| O=C(Nc1ccc(Cl)cc1)c1ccc(N2C(=O)c3ccc(C(=O)Nc4ccc(Cl)cc4)cc3C2=O)cc1 [MIT 9952-161] | 1.37 | 1.5 | – | – |
| CCCCCOc1ccc(-c2ccc(C(=O)NC(NCc3ccccc3)C(Cl)(Cl)Cl)cc2)cc1 (centres unmarked) [MIT 9952-247] | 0.63 | 0.64 | – | – |
| COc1ccc2nc(C(=O)[O-])sc2c1.[Na+] [MIT 9952-14] | 1.24 | 1.21 | – | – |
| O=C(Nc1cccc(C(F)(F)F)c1)c1cccc(C(=O)Nc2cccc(C(F)(F)F)c2)n1 [MIT 9952-189] | 0.56 | 0.58 | – | – |
| COc1ccc(C(=O)NC(Nc2cccc3ccccc23)C(Cl)(Cl)Cl)cc1 (centres unmarked) [MIT 9952-131] | 0.56 | 0.52 | – | – |
| C/C(=N\NC(=O)COc1ccc(I)cc1)c1cccs1 [MIT 9952-254] | 0.69 | 1.01 | – | – |
| CCCCN1CCC(O)(c2ccccc2)C(C(=O)c2ccccc2)C1 (centres unmarked) [MIT 9952-142] | 1.28 | 1.32 | – | – |
| O=C1CC(N2CCOCC2)C(=O)N1c1ccc(Br)cc1 (centres unmarked) [MIT 9952-3] | 1.32 | 1.17 | – | – |
| C=CCc1c(C)nc(-c2ccccc2)nc1Nc1ccc([N+](=O)[O-])cc1 [MIT 9952-227] | 0.58 | 0.53 | – | – |

| SMILES | ENDOHDL Test 1 | ENDOHDL Test 2 | ENDOHDL Test 1 [1] | ENDOHDL Test 2 [1] |
| --- | --- | --- | --- | --- |
| COc1ccc(C(=O)Nc2ccc(I)cc2)cc1OC [MIT 9952-253] | 0.59 | 0.65 | – | – |
| COc1ccc([N+](=O)[O-])cc1NC(=S)NC(NC(=O)C(c1ccccc1)c1ccccc1)C(Cl)(Cl)Cl (centres unmarked) [MIT 9952-140] | 0.52 | 0.58 | – | – |
| CCc1nnc(N2CCN(c3ncnc4c3cnn4-c3ccccc3)CC2)s1 [MIT 9952-248] | 0.68 | 0.66 | – | – |
| Cc1ccc(NC(=S)NC(NC(=O)c2ccccc2Cl)C(Cl)(Cl)Cl)cc1 (centres unmarked) [MIT 9952-201] | 0.69 | 0.67 | – | – |
| COc1ccc(N2C(=O)CC(N3CCCCC3)C2=O)cc1 (centres unmarked) [MIT 9952-16] | 1.25 | 1.26 | – | – |
| Cc1ccc2c(c1Br)/C(=N/NC(=O)Nc1ccccc1)C(=O)N2 [MIT 9952-130] | 0.62 | 0.65 | – | – |
| COc1ccc(COCC(Cl)CN2CCCCC2)cc1OC.Cl (centres unmarked) [MIT 9952-159] | 1.28 | 1.23 | – | – |
| Clc1ccc(-c2nc3ccc4ccccc4c3c3c2CCCC3)cc1 [MIT 9952-156] | 0.57 | 0.62 | – | – |
| O=C(NC(NC(=S)Nc1cccc([N+](=O)[O-])c1)C(Cl)(Cl)Cl)C(c1ccccc1)c1ccccc1 (centres unmarked) [MIT 9952-327] | – | – | 0.4 | 0.45 |
| C/C(CS(=O)(=O)c1ccc(C)cc1)=N/NC(N)=S [MIT 9952-181] | 0.6 | 0.54 | – | – |
| Cc1cc(C)c(/C=N/N=C/c2c(C)cc(C)cc2C)c(C)c1 [MIT 9952-287] | – | – | 1.18 | 1.32 |
| O=C(NC(NC(=S)Nc1cccc2ccccc12)C(Cl)(Cl)Cl)c1cccc([N+](=O)[O-])c1 (centres unmarked) [MIT 9952-102] | 0.56 | 0.49 | – | – |
| COc1cc2c(-c3ccccc3)c(C)oc2cc1/C=N/NC(N)=S [MIT 9952-206] | 0.56 | 0.52 | – | – |
| COc1ccc([N+](=O)[O-])cc1NC(=O)c1ccccc1 [MIT 9952-338] | – | – | 0.61 | 0.6 |
| CO/C(=N\C(NC(=S)Nc1ccc(Br)cc1)C(Cl)(Cl)Cl)c1ccc(C)cc1 (centres unmarked) [MIT 9952-198] | 0.67 | 0.64 | – | – |
| Cc1c([N+](=O)[O-])cc(C(=O)Nc2cccc(-c3nc4ccccc4o3)c2)cc1[N+](=O)[O-] [MIT 9952-210] | 0.59 | 0.56 | – | – |
| Cc1ccc2c(c1)/C(=C/c1ccc([N+](=O)[O-])cc1)c1cccnc1-2 [MIT 9952-246] | 0.56 | 0.52 | – | – |
| NC(=O)N/N=C/c1ccc(-c2ccc([N+](=O)[O-])cc2)o1 [MIT 9952-126] | 0.55 | 0.53 | – | – |
| Cc1cccc(N2C(=O)CN(C3CCOCC3)C2=O)c1 [MIT 9952-2] | 1.34 | 1.2 | – | – |
